Patent US8481496B2, “Gold (III) complexes with oligopeptides functionalized with sulfur donors and use thereof as antitumor agents” (Universita' Degli Studi di Padova, priority 2009, dated 2013)
Each block holds one molecule with its values, some of them ahead of it.

Tests used:
MDA-MB-231 tumor = conditions: MDA-MB-231 tumor-bearing nude mice; cited from earlier work
[1] = system: cisplatin-sensitive (2008) and -resistant (C13*) human ovarian carcinoma cells; conditions: cited from earlier work
[2] = system: human prostate carcinoma PC3 cells; test: In vitro cytotoxicity, BrdU cell proliferation ELISA; assay type: cell-based; conditions: 72 h exposure, 0.05-10 μM
Procedure: Human prostate carcinoma PC3 cells (established from bone marrow metastasis and unresponsive to androgen treatment) were cultured in IMDM (Iscove's Modified Dulbecco's medium) supplemented with 10% heat-inactivated fetal bovine serum (FBS), penicillin (2 mg mL^−1), streptomycin (2 mg mL^−1), L-glutamine (0.1% w/v) at 37° C. in 5% CO2 and moisture-enriched atmosphere.
Before use, [Au^IIIX2(pdtc)] complexes (AUD6, AUD7, AUD8, AUD9) and cisplatin were dissolved in methyl sulfoxide (DMSO) just before the experiments. Calculated amounts of drug solutions were then added to the proper medium to a final concentration of 0.5% (v/v) DMSO which had no discernible effect on cell death.
For the cytotoxicity assay, cells (2.5×10^3 cells mL^−1) were seeded in 96-well flat-bottomed microplates in IMDM supplemented with 10% heat-inactivated FBS and incubated at 37° C. in a 5% CO2 atmosphere. The medium was then removed and replaced with a fresh one containing the compounds to be studied (previously dissolved in DMSO) at increasing concentrations (0.05-10 μM), thus exposing cells to the investigated compounds for 72 h. Triplicate cultures were established for each treatment. Cell viability was determined by a cell proliferation ELISA 5-bromo-2′-deoxyuridine colorimetric kit, according to the manufacturer's protocol. […] For comparison purposes, the cytotoxicity of cisplatin was evaluated under the same experimental conditions.

[3] = system: estrogen receptor α-negative human breast cancer MDA-MB-231 cells; test: Growth inhibition, MTT assay; assay type: cell-based; conditions: 1-50 μM, 22 h, FIG. 2
Procedure: The growth-inhibitory effect of AUD6 and AUD8 on estrogen receptor α-negative human breast cancer MDA-MB-231 cells has been also evaluated. Cells were grown in RPMI 1640 medium supplemented with 10% heat-inactivated fetal bovine serum, penicillin (100 units mL^−1), streptomycin (100 μg mL^−1), L-glutamine (0.1% w/v) at 37° C. in 5% CO2 and moisture-enriched atmosphere. For the cytotoxicity assay, cells were seeded in 96-well microplates in RPMI 1640 medium and grown to 70% to 80% confluency followed by addition of the compounds to be studied (previously dissolved in DMSO) at increasing concentrations (1-50 μM) and incubated at 37° C. in a 5% CO2 atmosphere, thus exposing cells to the investigated compounds for 22 h. Triplicate cultures were established for each treatment. Cell respiration, as an indicator of cell viability, was determined by the mitochondrial-dependent reduction of MTT (3-(4,5-dimethylthiazol-2-yl)-2,5-diphenyltetrazolium bromide) to formazan as previously described [V. Milacic, D. Chen, L. Ronconi, K. R. Landis-Piwowar, D. Fregona, Q. P. Dou, Cancer Res. 2006, 66, 10478-10486]. Cell viability was calculated by dividing the average absorbance of the cells treated with the test compounds by that of the control, the standard deviation being estimated from the average of three trials.

[4] = system: purified rabbit 20S proteasome; test: Inhibition of proteasomal chymotrypsin-like activity, purified proteasome; assay type: biochemical; conditions: for potency relative to previously investigated Au(III)-dithiocarbamato analogues: purified rabbit 20S proteasome; for inhibition of proteasomal chymotrypsin-like activity: purified rabbit 20S proteasome (35 ng), 0.1-25 μM, 2 h, FIG. 3A
Procedure: (§1) To investigate whether these compounds could also have the proteasome as a biological target, purified rabbit 20S proteasome (35 ng) or MDA-MB-231 whole cell extract (10 μg) were incubated with 20 μM of the substrate (for proteasomal chymotryptic (CT) activity) in 100 μL assay buffer (20 mmol L^−1 Tris-HCl (pH 7.5) in the presence of the compounds to be studied (previously dissolved in DMSO) at increasing concentrations (0.1-25 μM) or equivalent volume of neat DMSO as control. After 2 h incubation at 37° C., inhibition of each proteasomal chymotryptic activity was measured as previously described [V. Milacic et al. 2006, ref. cit.].

[5] = target: T1, MDA-MB-231 whole cell extract (Homo sapiens, UniProt P28074); test: Inhibition of proteasomal chymotrypsin-like activity, whole cell extract; assay type: biochemical; conditions: for potency relative to previously investigated Au(III)-dithiocarbamato analogues: MDA-MB-231 whole cell extract; for inhibition of proteasomal chymotrypsin-like activity: MDA-MB-231 whole cell extract (10 μg), 0.1-25 μM, 2 h, FIG. 3B
T1 construct: MDA-MB-231 whole cell extract (10 μg); endogenous in cells; host or cells: MDA-MB-231 whole cell extract
T1 sequence (P28074 60-263): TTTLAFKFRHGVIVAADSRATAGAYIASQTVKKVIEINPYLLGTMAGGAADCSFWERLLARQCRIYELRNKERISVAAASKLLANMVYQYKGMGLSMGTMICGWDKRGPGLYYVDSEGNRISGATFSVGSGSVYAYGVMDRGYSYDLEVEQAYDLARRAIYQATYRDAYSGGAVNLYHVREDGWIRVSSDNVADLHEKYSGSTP
Procedure: as §1

[6] = system: proteasome target proteins, such as Bax and p27; test: Accumulation of proteasome target proteins; assay type: cell-based; conditions: preliminary
[7] = system: human breast cancer (MDA-MB-231) xenografts; test: Human breast tumor xenograft experiments; assay type: in vivo; conditions: 1.0 mg kg−1 s.c. daily, after 13 days, female athymic nude mice
Procedure: Estrogen receptor α-negative human breast cancer MDA-MB-231 cells were grown in RPMI 1640 medium supplemented with 10% fetal bovine serum, penicillin (100 units mL^−1), and streptomycin (100 μg mL^−1) at 37° C. in 5% CO2 and moisture-enriched atmosphere.
Five week-old female athymic nude mice were purchased from Taconic Research Animal Services (Hudson) and housed according to protocols approved by the Institutional Laboratory Animal Care and Use Committee of Wayne State University. MDA-MB-231 cells (5.0×10^6 cells mL^−1 suspended in 0.1 mL of serum-free RPMI 1640 medium) were inoculated subcutaneously (s.c.) in right flank of each mouse (four mice per group). When tumors reached the size of ca. 120 mm^3, mice were randomly grouped and treated daily with s.c. injection of either 1.0 mg kg^−1 of AUD6 or AUD8, or vehicle [10% DMSO, 20% Cremophore/ethanol (3:1) and 70% PBS]. Tumor size was measured every other day using calipers and their volumes were calculated according to the formula width^2×length/2. Mice have being treated for 13 days. Initial tumor growth inhibition was analyzed.

Molecule: CN(C)C1=[S+][Au-]([Br])([Br])[S]1 [[Au^IIIBr2(DMDT)]]
inhibition of tumor growth (MDA-MB-231 tumor): significant inhibition of tumor growth

Molecule: CCOC(=O)CN(C)C(=S)[S][Pt][Cl].c1ccncc1 [[Pt^IICl(ESDT)(py)]]
inhibition of tumor cell growth compared with cisplatin ([1]; 2008 and C13* cells): greater inhibition of tumor cell growth than cisplatin
cross-resistance in C13* cells ([1]; cisplatin-resistant C13* cells): complete lack of cross-resistance

Molecule: N.N.[Cl][Pt][Cl] [cisplatin, cis-dichlorodiamminoplatinum(II), reference compound]
IC50 [2]: 2600 ± 200 nM

potency relative to previously investigated Au(III)-dithiocarbamato analogues [5]: two-fold more potent
inhibition of proteasomal chymotrypsin-like activity [5]: concentration-dependent
Molecule: [Au^IIIBr2((t-Bu)O-Aib-Sar-dtc)] [AUD8]
IC50 [2]: 550 ± 50 nM
growth-inhibitory effect on MDA-MB-231 cells [3]: slightly higher activity
potency relative to previously investigated Au(III)-dithiocarbamato analogues [4]: two-fold more potent
inhibition of proteasomal chymotrypsin-like activity [4]: concentration-dependent
accumulation of proteasome target proteins (Bax, p27) [6]: induce accumulation of proteasome target proteins
tumor growth inhibition [7]: > 90%

potency relative to previously investigated Au(III)-dithiocarbamato analogues [5]: two-fold more potent
inhibition of proteasomal chymotrypsin-like activity [5]: concentration-dependent
Molecule: [Au^IIIBr2((t-Bu)O-Gly-Sar-dtc)] [AUD6]
IC50 [2]: 850 ± 70 nM
potency relative to previously investigated Au(III)-dithiocarbamato analogues [4]: two-fold more potent
inhibition of proteasomal chymotrypsin-like activity [4]: concentration-dependent
accumulation of proteasome target proteins (Bax, p27) [6]: induce accumulation of proteasome target proteins
tumor growth inhibition [7]: ca. 33%

Molecule: [Au^IIICl2((t-Bu)O-Aib-Sar-dtc)] [AUD9]
IC50 [2]: 750 ± 60 nM

Molecule: [Au^IIICl2((t-Bu)O-Gly-Sar-dtc)] [AUD7]
IC50 [2]: 1000 ± 100 nM
